Assay results from ChEMBL document CHEMBL5131436, “Dual Sigma-1 receptor antagonists and hydrogen sulfide-releasing compounds for pain treatment: Design, synthesis, and pharmacological evaluation” (Eur J Med Chem, 2022).
In brackets after ≈: the same amount, converted by molar mass. Activity calls are given as the source filed them. No cut-off for these calls is given here.

What was measured:
[1] = target: Sigma non-opioid intracellular receptor 1 (Homo sapiens, UniProt Q99720); assay: Displacement of [3H]-pentazocine from Sigma 1-receptor (unknown origin)
[2] = target: T1, Sigma non-opioid intracellular receptor 1 (Cavia porcellus, UniProt Q60492); assay: biochemical
[3] = target: Sigma intracellular receptor 2 (Homo sapiens, UniProt Q5BJF2); assay: Displacement of [3H]-di-o-tolylguanidine from Sigma 2-receptor (unknown origin)
[4] = target: T1, Sigma non-opioid intracellular receptor 1
[5] = system: Mus musculus; assay: Antinociceptive activity in sc dosed wild type CD1 mouse model of capsaicin-induced mechanical hypersensitivity assessed as reduction in mechanical hypersensitivity; format: functional
[6] = target: Mu-type opioid receptor (Rattus norvegicus, UniProt P33535); assay: Displacement of [3H]-DAMGO from Sprague-Dawley rat brain membrane mu opioid receptor incubated for 45 mins by liquid scintillation counting analysis; format: cell membranes
[7] = system: Mus musculus; assay: Analgesic activity in wild type CD1 mouse model of capsaicin-induced mechanical hypersensitivity assessed as reduction of capsaicin-induced mechanical hypersensitivity at 40 mg/kg, sc in presence of sigma1 receptor agonist PRE-084; format: functional, organism-based
[8] = target: Delta-type opioid receptor (Rattus norvegicus, UniProt P33533); assay: Displacement of [3H]-(2-D-Ala)[Tyrosy1-3,5-]-DELTORPHIN II from Sprague-Dawley rat brain membrane delta opioid receptor incubated for 45 mins by liquid scintillation counting analysis; format: cell membranes
[9] = target: T2, Sigma intracellular receptor 2 (Rattus norvegicus, UniProt Q5U3Y7); assay: biochemical
T2 sequence (Q5U3Y7 whole entry): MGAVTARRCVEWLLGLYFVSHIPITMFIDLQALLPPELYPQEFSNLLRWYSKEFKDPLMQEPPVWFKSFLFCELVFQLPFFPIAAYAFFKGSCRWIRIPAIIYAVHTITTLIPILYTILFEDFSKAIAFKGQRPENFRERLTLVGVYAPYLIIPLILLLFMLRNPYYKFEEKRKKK

[10] = target: Kappa-type opioid receptor (Cavia porcellus, UniProt P41144); assay: Displacement of [3H]-U69593 from Dunkin-Hartley guinea pig brain membrane kappa opioid receptor incubated for 30 mins by liquid scintillation counting analysis; format: cell membranes
[11] = system: Mus musculus; assay: Analgesic activity in wild type CD1 mouse model of capsaicin-induced mechanical hypersensitivity assessed as reduction of capsaicin-induced mechanical hypersensitivity at 10 to 40 mg/kg, sc; format: functional, organism-based; settings: dose 10-40 mg/kg
[12] = Induction of H2S release in PBS buffer incubated for 1 hrs in presence of Washington State Probe-1 by spectrofluorimeter assay; format: functional
[13] = Stability of compound in phosphate buffer at pH 7.4 assessed as half life by UHPLC-PDA analysis; format: physicochemical
[14] = target: Voltage-gated inwardly rectifying potassium channel KCNH2 (Homo sapiens, UniProt Q12809); assay: Inhibition of human ERG potassium channel expressed in CHO-K1 cells by Qube-automated patch clamp assay; format: toxicity, cell-based
[15] = target: hERG (KCNH2) (Homo sapiens, UniProt Q12809); assay: Inhibition of human ERG potassium channel expressed in CHO-K1 cells at 10 uM by Qube-automated patch clamp assay relative to control; format: toxicity, cell-based; settings: CHO-K1 cells expressing human ERG potassium channel
[16] = Aqueous solubility of compound at 5 mg measured for 24 hrs by UHPLC-PDA analysis; format: physicochemical; settings: water
[17] = Induction of motor coordination impairment in wild type CD1 mouse assessed as latency to fall at 40 mg/kg, sc measured upto 4 hrs by rotarod test; format: toxicity, organism-based; settings: in vivo
[18] = Stability of compound in saline solution assessed as half life by UHPLC-PDA analysis; format: physicochemical
[19] = Induction of hypotension in wild type CD1 mouse assessed as mean arterial blood pressure at 30 to 40 mg/kg, sc incubated upto 45 mins by tail-cuff plethysmography; format: toxicity, organism-based; settings: in vivo, 0.75 h, dose 30-40 mg/kg
[20] = Induction of motor coordination impairment in wild type CD1 mouse assessed as latency to fall at 5 mg/kg, sc in presence of sigma-1 receptor […] BD-1063 at 5 mg/kg, sc measured upto 4 hrs by rotarod test; format: toxicity, organism-based; settings: in vivo
[21] = system: Mus musculus; assay: Analgesic activity in wild type CD1 mouse model of capsaicin-induced mechanical hypersensitivity assessed as reduction in mechanical hypersensitivity at 5 mg/kg, sc in presence of BD-1063 at 5 mg/kg and PRE-084 at 32 mg/kg; format: functional, organism-based
[22] = system: Mus musculus; assay: Antinociceptive activity in wild type CD1 mouse model of capsaicin-induced mechanical hypersensitivity assessed as reduction in mechanical hypersensitivity at 10 mg/kg, sc in presence of Sigma 1 receptor agonist PRE-084; format: functional, organism-based
[23] = Induction of H2S release in PBS buffer at 100 uM in presence of Washington State Probe-1 by spectrofluorimeter assay; format: functional
[24] = system: Mus musculus; assay: Analgesic activity in wild type CD1 mouse model of capsaicin-induced mechanical hypersensitivity assessed as reduction in mechanical hypersensitivity at 5 mg/kg, sc in presence of sigma-1 receptor antagonist BD-1063 at 5 mg/kg; format: functional

T1 sequence (Q60492 whole entry): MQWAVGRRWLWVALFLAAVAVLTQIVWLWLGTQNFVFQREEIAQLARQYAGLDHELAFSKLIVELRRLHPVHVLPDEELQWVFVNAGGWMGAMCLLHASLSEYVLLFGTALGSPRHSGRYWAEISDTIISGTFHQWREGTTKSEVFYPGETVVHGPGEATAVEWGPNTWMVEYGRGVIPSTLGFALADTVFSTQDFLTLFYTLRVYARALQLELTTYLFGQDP
Sequence of Delta-type opioid receptor (P33533 whole entry): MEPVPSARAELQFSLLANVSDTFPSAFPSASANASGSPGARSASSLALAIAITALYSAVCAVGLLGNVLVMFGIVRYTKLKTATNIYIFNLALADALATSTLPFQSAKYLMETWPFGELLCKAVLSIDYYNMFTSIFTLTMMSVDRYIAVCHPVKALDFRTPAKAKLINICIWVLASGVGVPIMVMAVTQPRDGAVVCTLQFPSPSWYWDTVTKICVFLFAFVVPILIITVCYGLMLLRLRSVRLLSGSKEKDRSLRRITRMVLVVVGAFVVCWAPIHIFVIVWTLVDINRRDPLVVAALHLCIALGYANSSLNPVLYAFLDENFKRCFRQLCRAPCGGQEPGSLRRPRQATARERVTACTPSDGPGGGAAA
Sequence of Mu-type opioid receptor (P33535 whole entry): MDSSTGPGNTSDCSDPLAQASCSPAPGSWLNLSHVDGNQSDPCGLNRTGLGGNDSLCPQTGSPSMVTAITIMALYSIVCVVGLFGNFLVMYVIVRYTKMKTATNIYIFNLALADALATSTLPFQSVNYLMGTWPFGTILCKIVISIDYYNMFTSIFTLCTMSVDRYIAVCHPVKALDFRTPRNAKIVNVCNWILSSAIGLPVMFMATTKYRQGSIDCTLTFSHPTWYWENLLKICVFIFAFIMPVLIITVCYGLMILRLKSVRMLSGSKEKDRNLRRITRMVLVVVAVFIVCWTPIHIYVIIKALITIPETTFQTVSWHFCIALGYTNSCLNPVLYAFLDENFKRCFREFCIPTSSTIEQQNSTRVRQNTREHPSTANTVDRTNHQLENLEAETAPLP
Sequence of Kappa-type opioid receptor (P41144 whole entry): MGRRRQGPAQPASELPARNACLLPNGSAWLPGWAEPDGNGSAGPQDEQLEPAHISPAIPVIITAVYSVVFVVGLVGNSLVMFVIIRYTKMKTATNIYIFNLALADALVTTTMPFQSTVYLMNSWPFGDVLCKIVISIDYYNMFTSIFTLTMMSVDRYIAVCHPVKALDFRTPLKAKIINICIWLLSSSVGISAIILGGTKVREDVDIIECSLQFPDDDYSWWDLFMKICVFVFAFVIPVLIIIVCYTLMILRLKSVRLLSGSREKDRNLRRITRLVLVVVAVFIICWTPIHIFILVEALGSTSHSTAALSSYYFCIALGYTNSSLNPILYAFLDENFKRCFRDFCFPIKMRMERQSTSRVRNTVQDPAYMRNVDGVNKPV
Sequence of Sigma non-opioid intracellular receptor 1 (Homo sapiens, UniProt Q99720) (Q99720 whole entry): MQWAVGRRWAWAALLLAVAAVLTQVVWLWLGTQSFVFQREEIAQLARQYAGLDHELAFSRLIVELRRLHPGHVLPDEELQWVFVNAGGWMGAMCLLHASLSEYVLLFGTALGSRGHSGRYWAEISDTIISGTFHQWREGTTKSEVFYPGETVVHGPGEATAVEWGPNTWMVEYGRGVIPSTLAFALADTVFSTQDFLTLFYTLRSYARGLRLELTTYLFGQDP
Sequence of hERG (KCNH2) (Q12809 whole entry): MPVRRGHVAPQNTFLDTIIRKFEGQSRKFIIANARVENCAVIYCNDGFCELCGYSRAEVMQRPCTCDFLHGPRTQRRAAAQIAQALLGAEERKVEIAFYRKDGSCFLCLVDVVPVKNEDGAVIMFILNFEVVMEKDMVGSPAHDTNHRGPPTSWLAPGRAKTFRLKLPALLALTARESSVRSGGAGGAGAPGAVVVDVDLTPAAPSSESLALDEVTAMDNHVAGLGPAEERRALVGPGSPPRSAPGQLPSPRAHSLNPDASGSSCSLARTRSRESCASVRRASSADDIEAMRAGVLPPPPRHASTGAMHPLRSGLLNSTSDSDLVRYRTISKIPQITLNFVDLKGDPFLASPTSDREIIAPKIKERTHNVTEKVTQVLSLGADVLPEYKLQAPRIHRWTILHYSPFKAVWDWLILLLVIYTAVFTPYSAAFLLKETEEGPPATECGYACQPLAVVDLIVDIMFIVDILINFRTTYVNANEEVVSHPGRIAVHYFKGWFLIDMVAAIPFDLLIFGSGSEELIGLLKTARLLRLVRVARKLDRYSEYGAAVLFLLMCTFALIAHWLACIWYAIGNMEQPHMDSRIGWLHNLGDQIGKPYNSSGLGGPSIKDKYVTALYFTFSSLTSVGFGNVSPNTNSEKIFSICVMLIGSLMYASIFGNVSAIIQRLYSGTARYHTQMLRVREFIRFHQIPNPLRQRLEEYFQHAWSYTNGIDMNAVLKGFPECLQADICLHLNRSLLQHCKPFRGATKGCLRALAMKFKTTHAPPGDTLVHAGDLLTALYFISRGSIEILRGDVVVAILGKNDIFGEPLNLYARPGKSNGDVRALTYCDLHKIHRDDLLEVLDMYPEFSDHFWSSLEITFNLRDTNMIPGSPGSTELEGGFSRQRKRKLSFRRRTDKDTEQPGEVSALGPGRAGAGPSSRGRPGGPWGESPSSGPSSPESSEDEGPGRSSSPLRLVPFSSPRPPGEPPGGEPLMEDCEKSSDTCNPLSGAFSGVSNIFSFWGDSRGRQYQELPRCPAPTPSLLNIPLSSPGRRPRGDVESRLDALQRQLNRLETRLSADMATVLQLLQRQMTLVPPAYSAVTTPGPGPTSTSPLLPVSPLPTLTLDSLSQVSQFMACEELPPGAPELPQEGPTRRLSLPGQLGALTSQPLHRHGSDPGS
Sequence of Voltage-gated inwardly rectifying potassium channel KCNH2 (Q12809 whole entry): as above
Sequence of Sigma intracellular receptor 2 (Homo sapiens, UniProt Q5BJF2) (Q5BJF2 whole entry): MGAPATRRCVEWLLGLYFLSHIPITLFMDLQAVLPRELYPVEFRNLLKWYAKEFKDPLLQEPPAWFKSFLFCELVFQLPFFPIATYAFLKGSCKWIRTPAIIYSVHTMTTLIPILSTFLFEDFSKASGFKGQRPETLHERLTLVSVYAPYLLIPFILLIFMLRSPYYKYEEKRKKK

Row | Compound | Ki [2] [µM] | Ki [6] [µM] | Ki [8] [µM] | Ki [9] [µM] | Ki [10] [µM] | Activity [12] [µM] | further results
1 | O=C(NC1CCN(Cc2ccccc2)CC1)c1ccc(F)cc1 | 0.006 |  |  |  |  |  | Ki [1]: 0.006 µM; Ki [3]: 0.19 µM
2 | CN1CCN(CCc2ccc(Cl)c(Cl)c2)CC1 |  |  |  |  |  |  | Ki [4]: 0.014 µM; ED50 [5]: 10.3 mg/kg
3 | NC(=O)c1ccc(C(=O)N2CCN(Cc3ccccc3)CC2)cc1 | > 5 | 2.55 | > 10 | > 10 | > 10 |  | Activity [7]: Active; Activity [11]: Active
4 | NC(=O)c1ccc(C(=O)OCCCCN2CCC(O)(c3ccc(Cl)cc3)CC2)cc1 | 0.126 | > 10 | > 10 | 0.933 | > 10 |  | 
5 | NC(=O)c1ccc(C(=O)O)cc1 | > 10 | > 10 | > 10 | > 10 | > 10 |  | 
6 | NC(=S)c1ccc(C(=O)N2CCN(Cc3ccccc3)CC2)cc1 | 0.668 | > 10 | > 10 | > 10 | > 10 | 46.7 | Activity [7]: Active; Activity ([11]; DDE = dose-dependent effect): Dde
7 | NC(=S)c1ccc(C(=O)OC(CCCN2CCC(O)(c3ccc(Cl)cc3)CC2)c2ccc(F)cc2)cc1 (stereo not drawn) | 0.156 | 1.46 | > 10 | 0.311 | > 10 | 51.7 | 
8 | C[C@@H]1CCO[C@H]2Cn3cc(C(=O)NCc4ccc(F)cc4F)c(=O)c(O)c3C(=O)N12 [DOLUTEGRAVIR] | 0.124 |  |  | 0.018 |  |  | 
9 | Oc1ccc2c3c1O[C@H]1c4[nH]c5ccccc5c4C[C@@]4(O)[C@@H](C2)N(CC2CC2)CC[C@]314 [NALTRINDOLE] |  |  | 0.00253 |  |  |  | 
10 | NC(=O)c1ccc(C(=O)NC2CCN(Cc3ccccc3)CC2)cc1 |  | > 10 | > 10 |  | > 10 |  | 
11 | NC(=S)c1ccc(C(=O)NC2CCN(Cc3ccccc3)CC2)cc1 |  | > 10 | > 10 |  | > 10 | 38.4 | half-life [13]: 1.55 h; IC50 [14]: 6.8 µM; inhibition at 10 µM [15]: 60%; Activity [7]: Active; solubility at 24 h [16]: 1.25 µM (≈ 0.442 µg/mL); Activity [17]: Non-Toxic; Activity [11]: Active; half-life [18]: 4.17 h; Activity [19]: Non-Toxic
12 | NC(=O)c1ccc(C(=O)OC(CCCN2CCC(O)(c3ccc(Cl)cc3)CC2)c2ccc(F)cc2)cc1 (stereo not drawn) | 0.173 | 0.817 | > 10 | 0.618 | > 10 |  | 
13 | NC(=S)c1ccc(C(=O)O)cc1 |  | > 10 | > 10 |  | > 10 | 34.4 | Activity [20]: Non-Toxic; Activity [21]: Active; Activity [22]: Active; Activity [23]: Active; ED50 [24]: 7.52 mg/kg; ED75 [24]: 9.75 mg/kg; ED90 [24]: 12.6 mg/kg; ED50 [5]: 6.12 mg/kg
14 | NC(=S)c1ccc(C(=O)OCCCCN2CCC(O)(c3ccc(Cl)cc3)CC2)cc1 | 0.058 | > 10 | > 10 | 0.266 | > 10 | 41.8 | 
